The text below walks through data of US6667334B1, “Imidazolidine derivatives, the production thereof, their use and pharmaceutical preparations containing the same” (Aventis Pharma Deutschland GmbH, priority 1998, dated 2003).

pIC50: −log10 of the molar value.

In the test the target is T1, interaction between VCAM-1 and VLA-4 (Homo sapiens, UniProt P05556+P13612).
T1 construct: the VLA-4 integrins, are supplied in their natural form as surface molecules on human U937 cells; host or cells: U937 cells carry the endogenous VLA-4; The partner hVCAM-1(1-3)-IgG was secreted by transfected COS cells (ATCC CRL1651) and used as culture supernatant
T1 sequence (P13612 34-1032): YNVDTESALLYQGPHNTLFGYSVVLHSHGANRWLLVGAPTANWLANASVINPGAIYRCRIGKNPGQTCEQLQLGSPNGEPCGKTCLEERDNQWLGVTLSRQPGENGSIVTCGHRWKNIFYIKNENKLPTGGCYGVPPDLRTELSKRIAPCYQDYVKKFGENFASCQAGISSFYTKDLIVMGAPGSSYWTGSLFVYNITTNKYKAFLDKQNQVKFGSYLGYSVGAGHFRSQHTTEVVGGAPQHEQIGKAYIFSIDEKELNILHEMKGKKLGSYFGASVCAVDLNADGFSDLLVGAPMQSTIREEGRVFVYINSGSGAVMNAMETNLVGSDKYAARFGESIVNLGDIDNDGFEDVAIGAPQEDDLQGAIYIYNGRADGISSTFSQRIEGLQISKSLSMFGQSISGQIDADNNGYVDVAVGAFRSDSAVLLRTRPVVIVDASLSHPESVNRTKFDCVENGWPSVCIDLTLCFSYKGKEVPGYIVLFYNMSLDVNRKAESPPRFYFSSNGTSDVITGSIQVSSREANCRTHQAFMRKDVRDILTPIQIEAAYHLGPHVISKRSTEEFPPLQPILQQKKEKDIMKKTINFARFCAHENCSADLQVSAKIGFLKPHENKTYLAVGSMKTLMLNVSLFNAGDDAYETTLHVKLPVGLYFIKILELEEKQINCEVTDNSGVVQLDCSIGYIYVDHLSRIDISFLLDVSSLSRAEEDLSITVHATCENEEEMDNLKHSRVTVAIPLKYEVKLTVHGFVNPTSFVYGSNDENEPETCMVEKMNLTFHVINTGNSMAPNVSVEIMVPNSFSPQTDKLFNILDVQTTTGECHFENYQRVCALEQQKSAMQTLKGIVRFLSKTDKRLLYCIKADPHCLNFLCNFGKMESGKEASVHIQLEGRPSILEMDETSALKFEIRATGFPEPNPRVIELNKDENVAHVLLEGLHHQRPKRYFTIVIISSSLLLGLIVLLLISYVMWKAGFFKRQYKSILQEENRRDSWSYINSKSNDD
T1 sequence (P05556 21-798): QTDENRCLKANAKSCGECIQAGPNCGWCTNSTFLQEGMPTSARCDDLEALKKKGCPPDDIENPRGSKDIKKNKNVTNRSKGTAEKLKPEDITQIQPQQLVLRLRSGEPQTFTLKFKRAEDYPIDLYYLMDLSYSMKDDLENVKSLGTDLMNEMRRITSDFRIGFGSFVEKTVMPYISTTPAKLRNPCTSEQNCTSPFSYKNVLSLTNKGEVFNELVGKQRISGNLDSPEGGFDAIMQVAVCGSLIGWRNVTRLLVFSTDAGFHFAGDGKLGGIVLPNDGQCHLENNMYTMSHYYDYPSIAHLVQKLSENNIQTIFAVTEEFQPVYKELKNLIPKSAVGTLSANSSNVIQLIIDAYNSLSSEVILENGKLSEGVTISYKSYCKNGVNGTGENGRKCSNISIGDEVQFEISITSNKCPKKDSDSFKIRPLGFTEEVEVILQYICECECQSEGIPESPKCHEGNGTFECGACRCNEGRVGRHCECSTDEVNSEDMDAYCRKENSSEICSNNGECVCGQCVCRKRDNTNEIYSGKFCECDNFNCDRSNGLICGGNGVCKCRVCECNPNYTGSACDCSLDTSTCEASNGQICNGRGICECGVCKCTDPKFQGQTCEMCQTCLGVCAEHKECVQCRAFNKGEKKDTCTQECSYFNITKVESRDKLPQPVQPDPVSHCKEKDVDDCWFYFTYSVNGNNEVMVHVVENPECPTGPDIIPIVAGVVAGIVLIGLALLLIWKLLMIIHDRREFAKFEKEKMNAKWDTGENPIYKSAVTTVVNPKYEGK
In words: U937/VCAM-1 cell adhesion test: adhesion of U937 cells to hVCAM-1(1-3)-IgG. The class given is cell-based. Conditions: human U937 cells (ATCC CRL 1593) adhering to hVCAM-1(1-3)-IgG; concentration giving 50% inhibition of adhesion. The text has this: The test method used for the activity of the compounds of the formula I on the interaction between VCAM-1 and VLA-4 is an assay which is specific for this interaction. The cellular binding components, i.e. the VLA-4 integrins, are supplied in their natural form as surface molecules on human U937 cells (ATCC CRL 1593), which belong to the leukocytes group. The specific binding components used are genetically engineered recombinant soluble fusion proteins, consisting of the extracytoplasmatic domain of human VCAM-1 and the constant region of a human immunoglobulin of the subclass IgGl.
Assay for the Measurement of the Adhesion of U937 Cells (ATCC CRL 1593) to hVCAM-1(1-3)-IgG
1. Preparation of Human VCAM-1(1-3)-IgG and Human CD4-IgG
A genetic construct for the expression of the extracellular domain of human VCAM-1, associated with the genetic sequence of the heavy chain of human immunoglobulin IgGI (hinge, CH2 and CH3 regions), from Dr. Brian Seed, Massachusetts General Hospital, Boston, USA was employed (cf. Damle and Aruffo, Proc. Natl. Acad. Sci. USA 1991, 88, 6403-6407). The soluble fusion protein hVCAM-1(1-3)-IgG contained the three amino-terminal extracellular immunoglobulin-like domains of human VCAM-1 (Damle and Aruffo, Proc. Natl. Acad. Sci. USA 1991, 88, 6403-6407). CD4-IgG (Zettlmeissl et al., DNA and Cell Biology 1990, 9, 347) served as a fusion protein for negative controls. The recombinant proteins were expressed as soluble proteins after DEAE/dextran-mediated DNA transfection in COS cells (ATCC CRL1651) according to standard procedures (Ausubel et al., Current Protocols in Molecular Biology, John Wiley & Sons, Inc., 1994).
2. Assay for the Measurement of the Adhesion of U937 Cells to hVCAM-1(1-3)-IgG
2.1 96-well microtiter test plates (Nunc Maxisorb) were incubated at room temperature for 1 hour with 100 μl/well of a goat-anti-human IgG antibody solution (10 μg/ml in 50 mM tris, pH 9.5). After removal of the antibody solution, washing was carried out once with PBS.
2.2 150 μl/well of a blocking buffer (1% BSA in PBS) was incubated on the plates at room temperature for 0.5 hour. After removal of the blocking buffer, washing was carried out once with PBS.
2.3 100 μl per well of a cell culture supernatant of transfected COS cells were incubated on the plates at room temperature for 1.5 hours. The COS cells were transfected with a plasmid which codes for the three N-terminal immunoglobulin-like domains of VCAM-1, coupled to the Fc part of human IgG, (hVCAM-1(1-3)-IgG). The content of hVCAM-1(1-3)-IgG was about 0.5-1 μg/ml. After removal of the culture supernatant, washing was carried out once with PBS.
2.4 The plates were incubated at room temperature for 20 minutes with 100 μl/well of Fc receptor blocking buffer (1 mg/ml of γ-globulin, 100 mM NaCl, 100 μM MgCl2, 100 μM MnCl2, 100 μM CaCl2, 1 mg/ml of BSA in 50 mM HEPES, pH 7.5). After removal of the Fc receptor blocking buffer, washing was carried out once with PBS.
2.5 20 μl of binding buffer (100 mM NaCl, 100 μM MgCl2, 100 μM MnCl2, 100 μM CaCl2, 1 mg/ml of BSA in 50 mM HEPES, pH 7.5) were initially introduced, and the substances to be tested were added in 10 μl of binding buffer and incubated for 20 minutes. The controls used were antibodies against VCAM-1 (BBT, No. BBA6) and against VLA-4 (Immunotech, No. 0764).
2.6 U937 cells were incubated in Fc receptor blocking buffer for 20 minutes and then added by pipette in a concentration of 1×10^6/ml and in an amount of 100 μl per well ([…]).
2.7 The plates were slowly immersed at an angle of 45° in stop buffer (100 mM NaCl, 100 μM MgCl2, 100 μM MnCl2, 100 μM CaCl2 in 25 mM tris, pH 7.5) and shaken off. The process was repeated.
2.8 50 μl/well of a dye solution (16.7 μg/ml of Hoechst Dye 33258, 4% formaldehyde, 0.5% Triton X-100 in PBS) were then incubated on the plates for 15 minutes. […]

With `CC(C)C[C@@H](C(=O)NCCC(=O)O)N1C(=O)N(Cc2ccc(/C=C/c3ccccc3)cc2)C(C)(C)C1=O` [Example 4, 3-((S)-2-(4,4-Dimethyl-3-(4-styrylbenzyl)-2,5-dioxo-imidazolidin-1-yl)-2-(2-methylpropyl)acetylamino)propionic Acid], the pIC50 (in general, −log10 of the IC50, conventionally taken in molar units) was 4.56.

Take `CCCCc1ccc(C(CC(=O)O)NC(=O)[C@H](CC(C)C)N2C(=O)N(Cc3ccc(/C=C/c4ccccc4)cc3)C(C)(C)C2=O)cc1` (stereo partly drawn) [Example 16, 3-(4-Butylphenyl)-3-((S)-2-(4,4-dimethyl-3-(4-styrylbenzyl)-2,5-dioxoimidazolidin-1-yl)-2-(2-methyl-propyl)acetylamino)propionic Acid]: the pIC50 was 4.46.

On to `CC(C)C[C@@H](C(=O)NC(CC(=O)O)c1ccc(Cl)cc1)N1C(=O)N(Cc2ccc(/C=C/c3ccccc3)cc2)C(C)(C)C1=O` (stereo partly drawn) [Example 17, 3-(4-Chlorophenyl)-3-((S)-2-(4,4-dimethyl-3-(4-styrylbenzyl)-2,5-dioxoimidazolidin-1-yl)-2-(2-methyl-propyl)acetylamino)propionic Acid], for which the pIC50 is 4.44.

On to `Cc1ccccc1/C=C/c1ccc(CN2C(=O)N([C@@H](CC(C)C)C(=O)N[C@H](CC(=O)O)c3ccccc3)C(=O)C2(C)C)cc1` [Example 9, (R)-3-((S)-2-(4,4-Dimethyl-3-(4-(2-(2-methylphenyl)-vinyl)benzyl)-2,5-dioxoimidazolidin-1-yl)-2-(2-methyl-propyl)acetylamino)-3-phenylpropionic Acid], for which the pIC50 is 6.74.

For `CC(C)C[C@@H](C(=O)N[C@H](CC(=O)O)c1ccccc1)N1C(=O)N(Cc2ccc(/C=C/c3ccccc3)cc2)C(C)(C)C1=O` [Example 3, (R)-3-((S)-2-(4,4-Dimethyl-3-(4-styrylbenzyl)-2,5-dioxoimidazolidin-1-yl)-2-(2-methylpropyl)acetylamino)-3-phenylpropionic Acid], the pIC50 is 6.25.

Molecule `CC(C)C[C@@H](C(=O)NC(CC(=O)O)c1ccccc1F)N1C(=O)N(Cc2ccc(/C=C/c3ccccc3)cc2)C(C)(C)C1=O` (stereo partly drawn) [Example 14, 3-((S)-2-(4,4-Dimethyl-3-(4-styrylbenzyl)-2,5-dioxo-imidazolidin-1-yl)-2-(2-methylpropyl)acetylamino)-3-(2-fluorophenyl)propionic Acid] showed a pIC50 of 4.82.

`CC(C)C[C@@H](C(=O)N[C@H](C)CC(=O)O)N1C(=O)N(Cc2ccc(CCc3ccccc3)cc2)C(C)(C)C1=O` [Example 2, (R)-3-((S)-2-(4,4-Dimethyl-3-(4-(2-phenylethyl)benzyl)-2,5-dioxoimidazolidin-1-yl)-2-(2-methylpropyl)acetylamino)-3-methylpropionic Acid] showed a pIC50 of 3.93.

`CC(C)C[C@@H](C(=O)NC(CC(=O)O)c1cccc(F)c1)N1C(=O)N(Cc2ccc(/C=C/c3ccccc3)cc2)C(C)(C)C1=O` (stereo partly drawn) [Example 15, 3-((S)-2-(4,4-Dimethyl-3-(4-styrylbenzyl)-2,5-dioxo-imidazolidin-1-yl)-2-(2-methylpropyl)acetylamino)-3-(3-fluorophenyl)propionic acid] had a pIC50 of 4.21.

The molecule `CC(C)C[C@@H](C(=O)N[C@H](CC(=O)O)c1ccc2c(c1)OCO2)N1C(=O)N(Cc2ccc(/C=C/c3ccccc3)cc2)C(C)(C)C1=O` [Example 5, (R)-3-((S)-2-(4,4-Dimethyl-3-(4-styrylbenzyl)-2,5-dioxo-imidazolidin-1-yl)-2-(2-methylpropyl)acetylamino)-3-(3,4-methylenedioxyphenyl)propionic Acid] gave a pIC50 of 6.82.

Molecule `COc1cccc(C(CC(=O)O)NC(=O)[C@H](CC(C)C)N2C(=O)N(Cc3ccc(/C=C/c4ccccc4)cc3)C(C)(C)C2=O)c1` (stereo partly drawn) [Example 10, 3-((S)-2-(4,4-Dimethyl-3-(4-styrylbenzyl)-2,5-dioxo-imidazolidin-1-yl)-2-(2-methylpropyl)acetylamino)-3-(3-methoxyphenyl)propionic Acid] had a pIC50 of 4.61.

Consider `CC(C)C[C@@H](C(=O)NC(CC(=O)O)c1ccc(F)cc1)N1C(=O)N(Cc2ccc(/C=C/c3ccccc3)cc2)C(C)(C)C1=O` (stereo partly drawn) [Example 11, 3-((S)-2-(4,4-Dimethyl-3-(4-styrylbenzyl)-2,5-dioxo-imidazolidin-1-yl)-2-(2-methylpropyl)acetylamino)-3-(4-fluorophenyl)propionic Acid], for which the pIC50 is 4.74.

`CC(C)C[C@@H](C(=O)N[C@H](C)CC(=O)O)N1C(=O)N(Cc2ccc(OCc3ccccc3)cc2)C(C)(C)C1=O` [Example 7, (R)-3-((S)-2-(3-(4-Benzyloxybenzyl)-4,4-dimethyl-2,5-dioxoimidazolidin-1-yl)-2-(2-methylpropyl)acetylamino)-3-methylpropionic Acid]: the pIC50 is 5.54.

The molecule `Cc1ccccc1/C=C/c1ccc(CN2C(=O)N([C@@H](CC(C)C)C(=O)N[C@H](C)CC(=O)O)C(=O)C2(C)C)cc1` [Example 8, (R)-3-((S)-2-(4,4-Dimethyl-3-(4-(2-(2-methylphenyl)-vinyl)benzyl)-2,5-dioxoimidazolidin-1-yl)-2-(2-methyl-propyl)acetylamino)-3-methylpropionic Acid] gave a pIC50 of 5.70.

`CC(C)C[C@@H](C(=O)N[C@H](C)CC(=O)O)N1C(=O)N(Cc2ccc(/C=C/c3ccccc3)cc2)C(C)(C)C1=O` [Example 1, (R)-3-((S)-2-(4,4-Dimethyl-3-(4-styrylbenzyl)-2,5-dioxoimidazolidin-1-yl)-2-(2-methylpropyl)acetylamino)-3-methylpropionic Acid] gave a pIC50 of 5.49.

Consider `COc1ccc(C(CC(=O)O)NC(=O)[C@H](CC(C)C)N2C(=O)N(Cc3ccc(/C=C/c4ccccc4)cc3)C(C)(C)C2=O)cc1F` (stereo partly drawn) [Example 12, 3-((S)-2-(4,4-Dimethyl-3-(4-styrylbenzyl)-2,5-dioxo-imidazolidin-1-yl)-2-(2-methylpropyl)acetylamino)-3-(3-fluoro-4-methoxyphenyl)propionic Acid], for which the pIC50 was 4.76.

Molecule `Cc1cccc(C(CC(=O)O)NC(=O)[C@H](CC(C)C)N2C(=O)N(Cc3ccc(/C=C/c4ccccc4)cc3)C(C)(C)C2=O)c1` (stereo partly drawn) [Example 13, 3-((S)-2-(4,4-Dimethyl-3-(4-styrylbenzyl)-2,5-dioxo-imidazolidin-1-yl)-2-(2-methylpropyl)acetylamino)-3-(3-methylphenyl)propionic Acid] had a pIC50 of 4.19.

For `CC(C)C[C@@H](C(=O)N[C@H](CC(=O)O)c1ccc2c(c1)OCO2)N1C(=O)N(Cc2ccc(Oc3ccccc3)cc2)C(C)(C)C1=O` [Example 6, (R)-3-((S)-2-(4,4-Dimethyl-2,5-dioxo-3-(4-phenyloxy-20 benzyl)imidazolidin-1-yl)-2-(2-methylpropyl)acetylamino)-3-(3,4-methylenedioxyphenyl)propionic Acid], the pIC50 was 4.79.
